Columns and labels:
[1] = tested on: EO771 (Luc+OVA+) tumor organoids; assay: EO771 tumor organoid and OVA-specific CD8+ T cell co-culture cytotoxicity; assay type: cell-based, mouse; details: for outcome of combined 2D co-culture, tumor organoid co-culture and antigen presentation screens: 1 μM, 48 h treatment; for organoid dissociation / tumor cell death rates: co-culture with T cells
Source text: In accordance with the present disclosure a drug screen platform was used to identify epigenetic inhibitors that increase a cancer cell's sensitivity to CD8+ T-cell cytotoxicity. In one embodiment the drug screen platform is composed of breast tumor organoids and tumor-specific CD8+ T cells. A lentiviral vector expressing OVA was transduced to the Luc+EO771 cells. The resulting OVA+ cells were orthotopically transplanted to C57BL/6 mice to generate syngeneic mammary tumors. The tumors were harvested and dissociated to single cells for 2D culture and only the adherent cells were collected to generate tumor organoids. 2 ml of tumor organoid culture medium (2×10^5 cells per ml) were seeded into 6-well culture plate with ultra-low attachment surface. After 7-day culture, tumor organoids were filtered by cell strainers with nylon mesh between 70 and 150 μm. The tumor organoids with diameter between 70 and 150 μm were treated with drugs for 48 h in the matrigel-free medium. The treated tumor organoids were then co-cultured with the pre-activated and OVA-specific CD8+ T cells from OT-I mice in the breast organoid culture medium containing 10 ng ml-1 IL2 without matrigel for 24 h. The luciferase released from the EO771 cells was measured using a Dual-luciferase report assay system (Promega) on a BioTek Cytation5 imaging reader, to assess the T cell-mediated cytotoxicity effect.
Cytotoxicity of CD8+ T cells in the co-culture with tumor organoids We generated mouse EO771 (Luc+OVA+) cell line that presents OVA257-264 antigen (from chicken ovalbumin) and human MDA-MB-468 (NY-ESO-1+) cell line that presents NY-ESO-1 antigen for use in the T cell-mediated cytotoxicity assay. OVA-specific CD8+ T cells were isolated from the spleen of OT-I mouse that contains transgenic inserts of Tcra-V2 and Tcrb-V5 genes. The transgenic T cell receptor can recognize the ovalbumin peptide SIINFEKL (OVA257-264; SEQ ID NO: 55). Anti-NY-ESO-1 human CD8^+ T cells (CELLERO™) were used to recognize the NY-ESO-1+ MDA-MB-468 cells. Autologous human CD8+ T cells were isolated from patient tumor tissues and amplified in the DMEM/F12 medium supplemented with 10% FBS, 2 mM Ultraglutamine I, 1% penicillin/streptomycin and 10 ng mL-1 of human IL2 for 7 days. The CD8+ T cells were stimulated by the T-activator CD3/CD28 Dynabeads (Gibco, 11452D for mouse and 11131D for human) for 48 h prior to use for cytotoxicity assay. Mouse and human tumor organoids with diameter between 70 and 150 μm were collected and mixed with corresponding CD8+ T cells in DMEM/F12 medium supplemented with 10% FBS, 2 mM Ultraglutamine I, 1% penicillin/streptomycin and 10 ng mL-1 IL2 (Biolegend, mouse: 575402; human: 589102) at a ratio of organoids versus T cells at 1:200 in the microplates with ultra-low attachment surface. The cells were co-cultured for 24 h and subject to further analyses, such as optical and fluorescence imaging, luciferase assay or flow cytometry.
Epigenetic inhibitor screen on CD8+ T cell-mediated cytotoxicity: The epigenetic inhibitor library (Cayman chemical, Cat #11071, Batch #0522205, data not shown) was used for drug screen. Three different screen methods were conducted. In tumor organoid-T cell co-culture, EO771 (Luc+OVA+) tumor organoids with diameter between 70 and 150 μm were seeded with 100 organoids/well and treated with 1 μM of drug for 48 h. The tumor organoids were centrifuged at 100 rcf for 5 min. The medium were replaced with fresh T cell culture medium containing OVA-specific T cells. A total of 20,000 T cells were added in each well. After co-culture for 24 h, cytotoxicity of tumor cells was measured using a Dual-luciferase report 1000 assay system (Promega) in which luciferase expressed exclusively in the live EO771 (Luc+OVA+) cells was detected by a BioTek Cytation5 imaging reader. Low levels of luciferase from survived tumor cells refer to high cytotoxicity in the co-culture. […]

[2] = tested on: EO771 (Luc+OVA+) tumor organoids; assay: Toxicity on tumor organoids without T cells (WST-1 viability); assay type: cell-based, mouse; details: no T cells
Procedure: Tumor cell viability assay: For 2D tumor cell culture, tumor cells were seeded into 96 well plates at 2,000 cells per well and cultured for 72 h. For tumor organoids, tumor organoids with diameter between 70 and 150 μm were seeded at 50 organoids per well into 96-well microplates with ultra-low attachment surface (Corning). Cells or tumor organoids were treated with indicated compound at the final concentration of 1 μM. After 3-day culture, tumor organoids were dissociated into single cells using TrypLE Express (Corning) at 37° C. with a shaking velocity of 500 rpm on a thermomixer (Eppendorf) for 15 min. The 96-well microplates were added with 10 μl/well of Premix WST-1 reagent (TaKaRa) and incubated for 1 h. The microplates were read at absorbance of 450 nm on the Epoch microreader (BioTek). The toxicity of the epigenetic drugs was quantified using the premix WST-1 reagent according to the manufacturer's protocol.

EO771 tumors = assay: EO771 orthotopic breast tumor model in immunodeficient nude (NU/J) mice; assay type: in vivo; details: for tumor growth and weight: immune-deficient nude mice, 20 mg kg-1, vs control group; for size of gross dissected mammary EO771 tumors: nude mice, 20 mg kg−1, harvested day 18
Procedure: Animal studies: All animal experiments were performed in accordance with the National Institutes of Health's Animal Use Guidelines and protocols approved by the Animal Care and Use Committee of Indiana University School of Medicine. […] Each mouse was injected with a total of 2×10^5 tumor cells. 5 mice were used in each group. Tumors were measured in two dimensions using a manual caliper. Tumor volume was calculated using the following formula: V=0.5×length×width×width. Tumor volume was measured every 3 days. Tumors were harvested 22 days after injection. The tumor growth, volume and weight were analyzed. To evaluate the anti-tumor effect of drugs in immunocompetent C57BL/6 mice and immunodeficient nude (NU/J) mice, 2×10^5 EO771 cells were orthotopically injected into fat pad of the 4th mammary gland in female mice. […] For CD4/CD8 depletion experiment, the tumor-bearing mice were randomly divided into 7 groups (n=8 mice/group) including isotype control (rat IgG2a, Bioxcell), isotype control+CUDC-101, isotype control+BML-210, anti-CD8 (Clone: 53-6.72, Bioxcell)+CUDC-101, anti-CD8+BML-210, anti-CD4 (Clone: GK1.5, Bioxcell)+CUDC-101, or anti-CD4+BML-210. Intraperitoneal injection of inhibitors (20 mg kg-1) and anti-CD4/CD8 (10 mg kg-1) were administrated to the mice by 3 times/week for 2 weeks. The tumors were harvested at day 18 (NU/J mice) or day 28 (C57BL/6 mice) for further analyses. In immune checkpoint blockade experiment, 2×10^5 EO771 cells were orthotopically injected into fat pad of the 4th mammary gland in female C57BL/6 mice. From day 10, the tumor-bearing mice were randomly divided into each treatment group (n=8 mice/group), and the mice were treated with IgG2a isotype control antibody (clone 2A3, Bioxcell), BML-210 (20 mg kg-1), anti-PD-1 (200 μg/mouse, Bioxcell), or BML-210 and anti-PD-1 combo. The treatment was done 3 times/week for 2 weeks. Tumors were harvested at day 26 post injection and the tumors were analyzed by IHC staining, flow cytometry, ELISA or CyTOF assay.

[3] = Organ damage in treated mice; assay type: in vivo

Compound | outcome of combined 2D co-culture, tumor organoid co-culture and antigen presentation screens [1] | organoid dissociation [1] | tumor cell death rates [1] | promotion of T cell-mediated cytotoxicity after knockdown of B2M ([1]; shB2M OVA+ EO771 cells, FIG. 4G) | effect on the tumor organoids in the absence of T cells [2] | tumor growth and weight (EO771 tumors) | size of gross dissected mammary EO771 tumors (EO771 tumors) | visible damages in the heart, kidney, spleen, liver and lung [3]
Nc1ccccc1NC(=O)CCCCCCC(=O)Nc1ccccc1 [BML-210] | increase the antigenicity of tumor cells and enhance their response to cytotoxic T cells | greater organoid dissociation | higher tumor cell death rates | completely abolished | no notable effect | No significant differences | no significant difference in size | No visible damages
C#Cc1cccc(Nc2ncnc3cc(OC)c(OCCCCCCC(=O)NO)cc23)c1 [CUDC-101] | increase the antigenicity of tumor cells and enhance their response to cytotoxic T cells | greater organoid dissociation | higher tumor cell death rates | – | no notable effect | No significant differences | no significant difference in size | No visible damages
c1ccc([C@@H]2C[C@H]2NC2CCNCC2)cc1 [GSK-LSD1] | increase the antigenicity of tumor cells and enhance their response to cytotoxic T cells | greater organoid dissociation | higher tumor cell death rates | – | no notable effect | – | – | –
